Active and inactive are the calls of the source. No cut-off for these calls is given here.
Legend:
[1] = Selectivity index, ratio of IC50 for human MCF7 cells to IC50 for human NAMALVA cells; type: functional
[2] = Selectivity index, ratio of IC50 for human HS5 cells to IC50 for human Jurkat cells; type: functional
[3] = Selectivity index, ratio of IC50 for human HS5 cells to IC50 for human NAMALVA cells; type: functional
[4] = test system: Jurkat; test: Cytotoxicity against human Jurkat cells assessed as cell growth inhibition at 0.02 to 1.3 uM by MTT assay; type: functional, cell-based; settings: dose 0.02-1.3 µM, time lower 24.0 hrs, time upper […], TDE = time-dependent effect
[5] = test system: NAMALVA; test: Cytotoxicity against human NAMALVA cells assessed as cell growth inhibition at 0.1 to 10.5 uM by MTT assay; type: functional, cell-based; settings: dose 0.1-10.5 µM, time lower 24.0 hrs, time upper […], TDE = time-dependent effect
[6] = test system: U-937; test: Cytotoxicity against human U-937 cells assessed as cell growth inhibition incubated for 24 to 72 hrs by MTT assay; type: functional, cell-based; settings: time lower 24.0 hrs, time upper […]
[7] = test system: Jurkat; test: Inhibition of cell proliferation of human Jurkat cells assessed as reduction in Ki-67 expression at IC50 measured after 48 hrs by flow cytometry; type: functional, cell-based
[8] = test system: NAMALVA; test: Inhibition of cell proliferation of human NAMALVA cells assessed as reduction in Ki-67 expression at IC50 measured after 48 hrs by flow cytometry; type: functional, cell-based
[9] = test system: U-937; test: Induction of apoptosis in human U-937 cells at IC50 measured after 48 hrs by flow cytometry; type: functional, cell-based
[10] = test system: NAMALVA; test: Induction of apoptosis in human NAMALVA cells at IC50 measured after 48 hrs by flow cytometry; type: functional, cell-based
[11] = target: Histone deacetylase 1 (Homo sapiens, UniProt Q13547); test: Inhibition of HDAC1 in human Jurkat cells assessed as increase in acetyl-histone H3 level at IC50 incubated for 48 hrs by Western blot analysis; type: cell-based
Histone deacetylase 1, sequence (Q13547 whole entry): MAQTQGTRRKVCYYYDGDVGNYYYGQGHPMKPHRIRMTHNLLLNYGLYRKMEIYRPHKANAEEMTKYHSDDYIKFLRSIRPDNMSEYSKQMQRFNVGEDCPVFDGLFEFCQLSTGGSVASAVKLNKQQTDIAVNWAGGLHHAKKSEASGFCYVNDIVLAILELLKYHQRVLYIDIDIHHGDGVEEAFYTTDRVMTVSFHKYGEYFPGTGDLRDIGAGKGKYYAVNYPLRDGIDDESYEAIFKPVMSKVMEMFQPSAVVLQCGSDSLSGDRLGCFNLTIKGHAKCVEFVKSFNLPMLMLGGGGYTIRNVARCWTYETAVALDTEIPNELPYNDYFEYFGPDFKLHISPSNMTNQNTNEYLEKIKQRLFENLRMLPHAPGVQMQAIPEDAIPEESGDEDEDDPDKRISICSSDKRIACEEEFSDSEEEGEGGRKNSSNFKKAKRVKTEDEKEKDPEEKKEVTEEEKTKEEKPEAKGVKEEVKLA

[12] = target: T1, Protein deacetylase HDAC6 (Homo sapiens) (UniProt Q9UBN7); test: Inhibition of HDAC6 in human U-937 cells assessed as increase in acetyl-histone H3 level at IC50 incubated for 48 hrs by Western blot analysis; type: cell-based
T1 sequence (whole entry): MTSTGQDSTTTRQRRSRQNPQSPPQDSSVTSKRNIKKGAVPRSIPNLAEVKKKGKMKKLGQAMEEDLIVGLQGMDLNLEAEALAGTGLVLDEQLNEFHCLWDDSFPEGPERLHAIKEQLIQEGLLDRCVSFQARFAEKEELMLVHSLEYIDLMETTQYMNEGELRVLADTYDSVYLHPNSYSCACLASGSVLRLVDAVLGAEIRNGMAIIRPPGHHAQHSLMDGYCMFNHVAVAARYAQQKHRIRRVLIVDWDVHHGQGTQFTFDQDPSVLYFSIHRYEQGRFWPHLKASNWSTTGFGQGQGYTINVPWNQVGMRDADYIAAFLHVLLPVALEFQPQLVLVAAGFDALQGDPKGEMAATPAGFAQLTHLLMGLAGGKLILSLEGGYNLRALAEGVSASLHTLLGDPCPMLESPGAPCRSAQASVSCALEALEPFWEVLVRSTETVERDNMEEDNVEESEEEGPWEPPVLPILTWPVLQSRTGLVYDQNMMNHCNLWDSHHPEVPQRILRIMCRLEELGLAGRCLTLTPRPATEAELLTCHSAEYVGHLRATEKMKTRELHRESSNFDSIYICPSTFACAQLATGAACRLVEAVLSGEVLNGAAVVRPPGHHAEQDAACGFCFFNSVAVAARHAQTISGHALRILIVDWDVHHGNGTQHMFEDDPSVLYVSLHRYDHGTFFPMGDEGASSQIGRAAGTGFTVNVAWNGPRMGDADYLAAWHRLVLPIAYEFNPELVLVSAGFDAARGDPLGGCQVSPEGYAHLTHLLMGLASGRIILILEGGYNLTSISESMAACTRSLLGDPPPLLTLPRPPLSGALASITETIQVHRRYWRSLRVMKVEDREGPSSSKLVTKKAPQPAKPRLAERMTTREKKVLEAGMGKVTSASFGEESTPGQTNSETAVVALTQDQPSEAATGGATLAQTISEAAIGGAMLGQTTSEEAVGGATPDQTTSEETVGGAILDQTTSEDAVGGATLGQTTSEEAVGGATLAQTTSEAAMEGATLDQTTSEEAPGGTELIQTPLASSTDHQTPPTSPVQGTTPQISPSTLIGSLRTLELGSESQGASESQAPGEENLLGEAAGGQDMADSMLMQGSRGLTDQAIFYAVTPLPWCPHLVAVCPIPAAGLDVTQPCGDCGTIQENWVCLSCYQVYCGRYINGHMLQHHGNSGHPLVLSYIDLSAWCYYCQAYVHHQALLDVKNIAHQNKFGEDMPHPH

[13] = target: T1, Protein deacetylase HDAC6 (Homo sapiens); test: Inhibition of HDAC6 in human NAMALVA cells assessed as increase in acetyl-alpha-tubulin level at IC50 incubated for 48 hrs by Western blot analysis; type: cell-based
[14] = target: Cyclin-dependent kinase 6 (Homo sapiens) (UniProt Q00534); test: Inhibition of CDK6 (unknown origin) at 100 uM preincubated for 20 mins followed by 33P-ATP addition measured after 2 hrs by HotSpot kinase assay relative to control; settings: time 140.0 min
Cyclin-dependent kinase 6 (Homo sapiens), sequence (Q00534 whole entry): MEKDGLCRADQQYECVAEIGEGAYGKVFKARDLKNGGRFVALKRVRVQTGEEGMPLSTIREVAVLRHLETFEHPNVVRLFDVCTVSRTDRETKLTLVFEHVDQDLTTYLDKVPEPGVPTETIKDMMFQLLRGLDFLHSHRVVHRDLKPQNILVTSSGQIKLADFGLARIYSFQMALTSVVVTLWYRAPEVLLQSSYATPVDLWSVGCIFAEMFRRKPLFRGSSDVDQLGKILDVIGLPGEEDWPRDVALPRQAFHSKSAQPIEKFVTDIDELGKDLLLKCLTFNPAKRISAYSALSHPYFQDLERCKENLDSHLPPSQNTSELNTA

[15] = target: T2, CYP1A2 (Homo sapiens, UniProt P05177); test: Inhibition of CYP1A2 in liver microsomes (unknown origin) at 10 uM incubated for 10 mins relative to control; type: ADME, Microsome
T2 sequence (P05177 whole entry): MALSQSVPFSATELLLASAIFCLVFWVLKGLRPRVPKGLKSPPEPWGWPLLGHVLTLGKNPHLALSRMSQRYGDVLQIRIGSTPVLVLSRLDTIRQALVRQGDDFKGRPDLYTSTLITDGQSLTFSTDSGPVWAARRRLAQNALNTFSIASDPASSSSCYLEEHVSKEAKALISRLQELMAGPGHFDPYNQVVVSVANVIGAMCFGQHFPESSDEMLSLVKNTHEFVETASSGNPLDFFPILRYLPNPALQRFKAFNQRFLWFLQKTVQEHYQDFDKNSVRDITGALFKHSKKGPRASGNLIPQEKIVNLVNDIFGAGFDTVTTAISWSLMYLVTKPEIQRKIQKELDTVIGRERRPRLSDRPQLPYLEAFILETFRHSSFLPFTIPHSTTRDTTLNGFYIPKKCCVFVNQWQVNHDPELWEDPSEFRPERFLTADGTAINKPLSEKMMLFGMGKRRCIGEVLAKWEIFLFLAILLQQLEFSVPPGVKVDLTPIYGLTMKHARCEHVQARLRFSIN

[16] = target: CYP2C9 (Homo sapiens, UniProt P11712); test: Inhibition of CYP2C9 in liver microsomes (unknown origin) at 10 uM incubated for 10 mins relative to control; type: ADME, Microsome
CYP2C9, sequence (P11712 whole entry): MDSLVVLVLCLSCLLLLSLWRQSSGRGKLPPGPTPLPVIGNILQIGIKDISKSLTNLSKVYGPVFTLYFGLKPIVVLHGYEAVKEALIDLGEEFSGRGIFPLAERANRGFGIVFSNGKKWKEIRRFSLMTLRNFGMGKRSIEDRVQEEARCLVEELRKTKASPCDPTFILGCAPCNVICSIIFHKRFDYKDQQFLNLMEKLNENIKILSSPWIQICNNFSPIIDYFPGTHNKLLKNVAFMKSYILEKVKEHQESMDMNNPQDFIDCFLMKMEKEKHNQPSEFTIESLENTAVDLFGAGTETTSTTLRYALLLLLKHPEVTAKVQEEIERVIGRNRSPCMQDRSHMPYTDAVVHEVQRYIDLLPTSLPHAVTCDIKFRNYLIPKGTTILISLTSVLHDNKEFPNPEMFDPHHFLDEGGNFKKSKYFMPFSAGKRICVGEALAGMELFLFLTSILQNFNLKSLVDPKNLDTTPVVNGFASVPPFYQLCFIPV

[17] = target: CYP2D6 (Homo sapiens, UniProt P10635); test: Inhibition of CYP2D6 in liver microsomes (unknown origin) at 10 uM incubated for 10 mins relative to control; type: ADME, Microsome
CYP2D6, sequence (P10635 whole entry): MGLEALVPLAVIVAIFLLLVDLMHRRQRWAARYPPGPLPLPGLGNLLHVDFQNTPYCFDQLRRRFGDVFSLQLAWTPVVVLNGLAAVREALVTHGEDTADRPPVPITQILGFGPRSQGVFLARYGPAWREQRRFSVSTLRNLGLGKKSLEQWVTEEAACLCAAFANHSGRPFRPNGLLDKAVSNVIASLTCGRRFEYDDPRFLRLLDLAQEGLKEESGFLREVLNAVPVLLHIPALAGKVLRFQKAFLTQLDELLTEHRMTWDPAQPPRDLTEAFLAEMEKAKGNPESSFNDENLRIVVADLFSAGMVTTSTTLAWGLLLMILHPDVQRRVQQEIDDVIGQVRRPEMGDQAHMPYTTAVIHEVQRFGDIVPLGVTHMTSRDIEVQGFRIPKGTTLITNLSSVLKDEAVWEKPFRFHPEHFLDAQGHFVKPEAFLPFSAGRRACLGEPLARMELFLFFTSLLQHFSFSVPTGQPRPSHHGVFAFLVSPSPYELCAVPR

[18] = Stability in human liver microsome assessed as half life at 1 uM measured for 60 mins by LC-MS/MS analysis; type: ADME; settings: liver microsomes
[19] = test system: HCT-116; test: cells; settings: Homo sapiens

Structure (SMILES)	Ratio IC50 [1]	Ratio IC50 [2]	Ratio IC50 [3]	inhibition [4]	inhibition [5]	inhibition [6]	inhibition [7]	inhibition [8]	Activity [9]	Activity [10]	inhibition [11]	inhibition [12]	inhibition [13]	inhibition [14] [%]	inhibition at 10 min, 10 µM [15] [%]	inhibition at 10 min, 10 µM [16] [%]	inhibition at 10 min, 10 µM [17] [%]	half-life at 1 µM [18] [h]	IC50 [19] [µM]
O=C(NO)c1ccc(Cn2cnc3c(Nc4ccc(F)c(Cl)c4)ncnc32)cc1	83	>=100	>=100	Tde	Tde	Dose-Dependent Effect	Active	Active	Active	Active	Active	Active	Active	38.6	46	52	10	> 2	9.3
COc1ccc(Nc2ncnc3c2ncn3Cc2ccc(C(=O)NO)cc2)cc1	83	>=100	>=100			Dose-Dependent Effect	Active	Active	Active	Active	Active	Active	Active		50	34	10	> 2	8.3

Source: ChEMBL document CHEMBL5532651, “HDAC specificity and kinase off-targeting by purine-benzohydroxamate anti-hematological tumor agents” (Eur J Med Chem, 2024)
